Data: ChEMBL document CHEMBL1143211, “Inhibitors of proteases and amide hydrolases that employ an alpha-ketoheterocycle as a key enabling functionality” (Bioorg Med Chem, 2008)
Values belong to the compound of their own block, whether it stands above or below them.

Assays:
Granzyme B = Granzyme B (Homo sapiens, UniProt P10144); experiment: Inhibition of granzyme B
[1] = biological target: T1, Fatty-acid amide hydrolase 1 (Rattus norvegicus, UniProt P97612)
T1 sequence (P97612 whole entry): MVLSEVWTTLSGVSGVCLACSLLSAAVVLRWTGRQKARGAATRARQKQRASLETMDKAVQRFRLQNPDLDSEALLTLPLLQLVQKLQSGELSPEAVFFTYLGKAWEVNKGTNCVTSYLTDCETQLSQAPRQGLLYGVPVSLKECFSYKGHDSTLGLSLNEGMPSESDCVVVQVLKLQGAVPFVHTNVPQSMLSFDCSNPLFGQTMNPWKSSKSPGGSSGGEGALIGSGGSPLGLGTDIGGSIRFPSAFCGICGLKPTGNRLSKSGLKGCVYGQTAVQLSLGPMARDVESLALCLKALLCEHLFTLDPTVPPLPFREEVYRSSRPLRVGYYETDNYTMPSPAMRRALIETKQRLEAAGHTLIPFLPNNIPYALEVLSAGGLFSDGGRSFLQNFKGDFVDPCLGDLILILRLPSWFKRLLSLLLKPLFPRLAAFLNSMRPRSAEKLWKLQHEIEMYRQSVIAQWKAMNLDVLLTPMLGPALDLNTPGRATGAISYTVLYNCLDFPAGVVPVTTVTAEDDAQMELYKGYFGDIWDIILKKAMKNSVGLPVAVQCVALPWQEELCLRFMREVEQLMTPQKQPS

[2] = Selectivity for rat FAAH over triacylglycerol hydrolase
[3] = Inhibition of dengue virus NS3 protease
Hamster = experiment: Efficacy in po dosed hamster acute lung injury model; format: functional; details: Cricetinae
Cathepsin B = Cathepsin B (Homo sapiens, UniProt P07858); experiment: Inhibition of human liver cathepsin B
Cathepsin S = Cathepsin S (Homo sapiens, UniProt P25774); experiment: Inhibition of human recombinant cathepsin S
Cathepsin K = biological target: T2, Cathepsin K (Homo sapiens, UniProt P43235); experiment: Inhibition of human recombinant cathepsin K
T2 sequence (P43235 whole entry): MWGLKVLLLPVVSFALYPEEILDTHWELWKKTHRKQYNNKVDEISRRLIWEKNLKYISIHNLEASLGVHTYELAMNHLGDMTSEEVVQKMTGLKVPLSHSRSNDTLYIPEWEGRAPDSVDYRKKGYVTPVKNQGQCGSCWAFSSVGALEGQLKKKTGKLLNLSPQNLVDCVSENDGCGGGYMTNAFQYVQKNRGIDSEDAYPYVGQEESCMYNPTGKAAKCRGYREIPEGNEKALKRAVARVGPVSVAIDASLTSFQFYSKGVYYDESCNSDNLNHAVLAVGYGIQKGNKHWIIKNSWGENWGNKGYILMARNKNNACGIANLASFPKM

Procathepsin L = Procathepsin L (Homo sapiens, UniProt P07711); experiment: Inhibition of human recombinant cathepsin L
Prothrombin = Prothrombin (Homo sapiens, UniProt P00734); experiment: Inhibition of human alpha-thrombin
[4] = Inhibition of bovine trypsin; set-up: species or system Bos taurus
Plasma kallikrein = Plasma kallikrein (Homo sapiens, UniProt P03952); experiment: Inhibition of kallikrein
Coagulation factor X = Coagulation factor X (Homo sapiens, UniProt P00742); experiment: Inhibition of human factor 10a
[5] = Selectivity for human alpha-thrombin over bovine trypsin
rhinovirus B14 = experiment: Antiviral activity against human rhinovirus 14; format: functional, organism-based; details: Rhinovirus B
[6] = Inhibition of human rhinovirus 14 3C protease; set-up: species or system rhinovirus B14
[7] = Inhibition of human beta-tryptase
[8] = Oral bioavailability in rat; format: ADME, organism-based; details: in vivo
Homo sapiens = species: Homo sapiens; experiment: Selectivity for human alpha-thrombin over human trypsin
[9] = Inhibition of trypsin-like activity of human 20S proteasome
[10] = Inhibition of post-glutamyl peptide hydrolase-like activity of human 20S proteasome

Procathepsin L, sequence (P07711 whole entry): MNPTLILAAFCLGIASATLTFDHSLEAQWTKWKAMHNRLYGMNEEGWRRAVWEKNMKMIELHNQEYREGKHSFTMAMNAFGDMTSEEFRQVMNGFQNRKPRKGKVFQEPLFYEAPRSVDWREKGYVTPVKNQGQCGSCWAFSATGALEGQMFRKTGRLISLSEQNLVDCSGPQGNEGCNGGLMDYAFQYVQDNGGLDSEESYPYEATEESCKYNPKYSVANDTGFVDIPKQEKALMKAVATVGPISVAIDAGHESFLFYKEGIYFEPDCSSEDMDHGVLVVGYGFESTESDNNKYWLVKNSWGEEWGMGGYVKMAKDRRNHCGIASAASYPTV
Cathepsin S, sequence (P25774 whole entry): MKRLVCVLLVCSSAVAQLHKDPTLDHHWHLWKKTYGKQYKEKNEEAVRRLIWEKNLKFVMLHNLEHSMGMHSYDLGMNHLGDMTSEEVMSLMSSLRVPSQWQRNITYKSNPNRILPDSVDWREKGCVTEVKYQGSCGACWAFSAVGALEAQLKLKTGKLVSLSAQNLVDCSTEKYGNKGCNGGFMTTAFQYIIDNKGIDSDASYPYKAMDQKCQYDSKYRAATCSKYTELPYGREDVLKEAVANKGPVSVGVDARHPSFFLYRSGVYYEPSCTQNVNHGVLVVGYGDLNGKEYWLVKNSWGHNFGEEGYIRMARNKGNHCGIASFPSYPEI
Plasma kallikrein, sequence (P03952 20-390 limits assumed): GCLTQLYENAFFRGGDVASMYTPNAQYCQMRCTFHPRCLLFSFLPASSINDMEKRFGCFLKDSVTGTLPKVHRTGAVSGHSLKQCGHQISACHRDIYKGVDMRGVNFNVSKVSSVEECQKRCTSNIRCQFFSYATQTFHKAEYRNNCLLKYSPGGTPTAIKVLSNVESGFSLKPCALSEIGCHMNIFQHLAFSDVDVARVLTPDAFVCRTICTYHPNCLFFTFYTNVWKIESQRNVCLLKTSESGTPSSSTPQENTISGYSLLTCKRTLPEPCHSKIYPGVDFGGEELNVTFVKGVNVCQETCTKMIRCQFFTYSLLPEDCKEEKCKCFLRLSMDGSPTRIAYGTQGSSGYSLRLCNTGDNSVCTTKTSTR
Plasma kallikrein, sequence (P03952 391-638 limits assumed): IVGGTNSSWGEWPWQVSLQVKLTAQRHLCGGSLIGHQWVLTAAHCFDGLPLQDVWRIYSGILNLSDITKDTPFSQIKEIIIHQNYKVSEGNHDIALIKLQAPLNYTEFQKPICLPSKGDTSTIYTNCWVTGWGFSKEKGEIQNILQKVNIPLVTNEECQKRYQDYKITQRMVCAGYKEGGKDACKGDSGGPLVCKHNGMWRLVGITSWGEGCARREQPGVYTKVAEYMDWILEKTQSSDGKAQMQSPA
Granzyme B, sequence (P10144 whole entry): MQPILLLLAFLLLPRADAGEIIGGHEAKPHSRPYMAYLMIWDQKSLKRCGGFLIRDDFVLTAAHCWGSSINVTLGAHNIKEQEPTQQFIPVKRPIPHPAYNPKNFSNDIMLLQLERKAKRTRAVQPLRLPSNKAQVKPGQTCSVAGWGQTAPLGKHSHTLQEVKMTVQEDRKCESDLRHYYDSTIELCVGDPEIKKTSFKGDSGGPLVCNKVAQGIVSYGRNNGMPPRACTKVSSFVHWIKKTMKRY
Coagulation factor X, sequence (P00742 41-179 limits assumed): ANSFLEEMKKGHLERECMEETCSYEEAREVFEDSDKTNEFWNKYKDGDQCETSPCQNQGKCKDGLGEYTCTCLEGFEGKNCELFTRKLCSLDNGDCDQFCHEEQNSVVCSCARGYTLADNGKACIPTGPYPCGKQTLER
Coagulation factor X, sequence (P00742 235-488 limits assumed): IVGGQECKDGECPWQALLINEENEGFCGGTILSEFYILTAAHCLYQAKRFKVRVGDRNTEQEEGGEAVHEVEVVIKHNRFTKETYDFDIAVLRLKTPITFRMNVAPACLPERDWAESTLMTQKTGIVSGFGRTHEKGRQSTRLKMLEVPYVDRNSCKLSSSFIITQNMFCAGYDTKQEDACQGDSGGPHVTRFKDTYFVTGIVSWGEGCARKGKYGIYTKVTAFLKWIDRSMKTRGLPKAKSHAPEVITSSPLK

Structure (SMILES): CCCC[C@H](NC(=O)c1ccccc1)C(=O)N[C@@H](CCCCN)C(=O)N[C@@H](CCCNC(=N)N)C(=O)N[C@@H](CCCNC(=N)N)C(=O)c1nccs1
- Ki [3]: 43000 nM

Structure (SMILES): Cc1cccc(Cc2nnc(C(=O)[C@@H](NC(=O)Cn3c(-c4ccc(F)cc4)ncc(N)c3=O)C(C)C)o2)c1
- ED50 (Hamster): 13 mg/kg

Structure (SMILES): CN[C@H](Cc1ccccc1)C(=O)N1CCC[C@H]1C(=O)N[C@@H](CCCN=C(N)N)C(=O)c1nc2ccccc2o1
- Ratio Ki [5]: 30
- Ki [4]: 13 nM

Structure (SMILES): CCCC[C@H](NC(=O)c1ccccc1)C(=O)N[C@@H](CCCCN)C(=O)N[C@@H](CCCNC(=N)N)C(=O)N[C@@H](CCCNC(=N)N)C(=O)c1nc2ccccc2o1
- Ki [3]: 83000 nM

Structure (SMILES): CC[C@H](C)[C@H](NC(C)=O)C(=O)N[C@H]1CCc2cccc3c2N(C1=O)[C@H](C(=O)N[C@@H](CC(=O)O)C(=O)c1nnc(-c2ccccc2)o1)C3
- Ki (Granzyme B): 7 nM

Structure (SMILES): N=C(N)NCCC[C@H](NC(=O)[C@@H]1CCCN1C(=O)c1ccccc1)C(=O)c1nc2ccccc2s1
- Ki [7]: 250 nM
- Ki [4]: 160 nM

Structure (SMILES): Cc1ccc(S(=O)(=O)N[C@@H](CC(=O)NCC(C)(C)C)C(=O)N[C@@H](C)C(=O)N[C@@H](CC(C)C)C(=O)c2nnc(-c3ccc(N(C)C)cc3)o2)cc1
- Ki [9]: 290000 nM
- Ki [10]: > 300000 nM

Structure (SMILES): CC(C)[C@H](NC(=O)Cn1c(-c2ccc(F)cc2)ncc(N)c1=O)C(=O)c1nnc(C(C)(C)c2ccccc2)o1
- ED50 (Hamster): 10 mg/kg

Structure (SMILES): CCCC[C@H](NC(=O)c1ccccc1)C(=O)N[C@@H](CCCCN)C(=O)N[C@@H](CCCNC(=N)N)C(=O)N[C@H](CCCNC(=N)N)B(O)O
- Ki [3]: 43 nM

Structure (SMILES): N=C(N)NCCC[C@H](NC(=O)[C@@H]1CCN2CC[C@@](N)(Cc3ccccc3)C(=O)N12)C(=O)c1nc2ccccc2s1
- bioavailability [8]: 25%
- Ki (Prothrombin): 0.65 nM

Now from value to compound, other results behind:

- Ki (Granzyme B): 8 nM
Structure (SMILES): CC[C@H](C)[C@H](NC(C)=O)C(=O)N[C@H]1CCc2cccc3c2N(C1=O)[C@H](C(=O)N[C@H](C=O)CC(=O)O)C3

- Ki [1]: 0.57 nM
- Selectivity ratio [2]: 100
Structure (SMILES): CCCCCCCCCCCC(=O)c1nc2ncccc2o1

- Selectivity ratio [2]: 5000
Structure (SMILES): CCCCCCCC/C=C\CCCCCCCC(=O)c1nnc(-c2ccccn2)o1

- Ki (Cathepsin B): 2 nM
- Ki (Cathepsin S): < 0.25 nM
- Ki (Cathepsin K): < 0.25 nM
- Ki (Procathepsin L): 1 nM
Structure (SMILES): CCCC[C@H](NC(=O)C(=O)[C@H](CC(C)C)NC(=O)OCc1ccccc1)C(=O)c1nnc(-c2ccco2)o1

- Ki (Prothrombin): 4.5 nM
- Ki [4]: 5.4 nM
Structure (SMILES): CCOC(=O)c1csc(C(=O)[C@H](CCCNC(=N)N)NC(=O)[C@@H]2CCCN2C(=O)[C@@H](Cc2ccccc2)NC)n1

- IC50 (Plasma kallikrein): 120 nM
- IC50 (Coagulation factor X): 1 nM
Structure (SMILES): N=C(N)NCCC[C@H](NC(=O)CNC(=O)[C@@H](CCCNC(=N)N)NS(=O)(=O)CCc1ccccc1)C(=O)c1nccs1

- EC50 (rhinovirus B14): 3200 nM
Structure (SMILES): CC(C)C[C@H](NC(=O)OCc1ccccc1)C(=O)N[C@@H](Cc1ccccc1)C(=O)N[C@@H](C[C@H]1CCNC1=O)C(=O)c1nc2ccccc2s1
- Ki [6]: 65 nM

- bioavailability [8]: 2%
- Ki (Prothrombin): 0.85 nM
Structure (SMILES): N=C(N)NCCC[C@H](NC(=O)[C@@H]1CC[C@@H]2CC[C@@](N)(Cc3ccccc3)C(=O)N21)C(=O)c1nc2ccccc2s1

- Selectivity ratio (Homo sapiens): 275
- Ki [7]: 1.5 nM
Structure (SMILES): NCCCC[C@H](NC(=O)c1cc(F)cc(F)c1)C(=O)c1noc(Cc2ccc(C(=O)NCCc3cccc(Cl)c3)cc2)n1

- Ratio Ki [5]: 10
- Ki [4]: 1.2 nM
Structure (SMILES): CN[C@H](Cc1ccccc1)C(=O)N1CCC[C@H]1C(=O)N[C@@H](CCCN=C(N)N)C(=O)c1nccs1

- Ki (Cathepsin B): 25000 nM
- Ki (Cathepsin S): 26000 nM
- Ki (Cathepsin K): 9600 nM
- Ki (Procathepsin L): 100000 nM
Structure (SMILES): CCCC[C@H](NC(=O)CCc1ccccc1)C(=O)c1nnc(-c2ccco2)o1

- IC50 (Plasma kallikrein): 29 nM
- IC50 (Coagulation factor X): 2 nM
Structure (SMILES): N=C(N)NCCC[C@H](NC(=O)CNC(=O)[C@@H](CCCNC(=N)N)NS(=O)(=O)CCc1ccccc1)C(=O)c1nc2ccccc2s1

- Ki [4]: 290 nM
Structure (SMILES): CN[C@H](Cc1ccccc1)C(=O)N1CCC[C@H]1C(=O)N[C@@H](CCCNC(=N)N)C(=O)c1nc2ccccc2n1C

- Ki (Cathepsin B): 90 nM
- Ki (Cathepsin S): 40 nM
- Ki (Cathepsin K): 40 nM
- Ki (Procathepsin L): 220 nM
Structure (SMILES): CC(C)C[C@H](NC(=O)C1CCNCC1)C(=O)N[C@@H](CCc1ccccc1)C(=O)c1nc2cc(S(N)(=O)=O)ccc2o1
